Reference: US11026896B2, “Transdermal penetrant formulations containing cannabidiol” (AMPERSAND BIOPHARMACEUTICALS, INC., priority 2019, dated 2021)

Test: Plasma pharmacokinetic profile of CBD after a single topical dose to CD-1 mice (In-life Study 1901002-01, LC-MS/MS)
Type: in vivo
Details: single topical dose 0.1 mL, mouse plasma
Method: The objective of this study was to determine the plasma pharmacokinetic (PK) profile of test article cannabidiol (CBD) following the administration of a single topical dose to CD-1 mice. The work was conducted at Alliance Pharma with a title of In-life Study 1901002-01. Although the in-life study was not intended to be conducted in compliance with Good Laboratory Practice regulations, the study was conducted in accordance with Alliance Pharma's IACUC (Institutional Animal Care and Use Committee) Protocol No. 2016-02_V4 and Alliance Pharma's standard operating procedures (SOPs). In addition, the pharmacokinetic analyses of mouse plasma samples were conducted in accordance with Alliance Pharma SOPs.
A total of 72 mouse (CD-1) plasma samples were transferred from Alliance Pharma's in-life facility located in Malvern, Pa. to the Bioanalytical department for pharmacokinetic analysis. The concentration of CBD in these 72 plasma samples was measured using high-performance liquid chromatography (HPLC) with tandem mass spectrometry (MS/MS) detection.
In-life Study Design: In-life Study 1901002-01 was performed at the in-life testing facility at Alliance Pharma. Four (4) groups of 21 CD-1 mice each (84 total) were administered a single topical dose of CBD. Mice in Group 1 were administered Formulation A at a strength of 2.5% CBD. Mice in Group 2 were administered Formulation B at the same strength of 2.5% CBD. Mice in Group 3 were administered Formulation C at a strength of 5% CBD, and mice in Group 4 were administered Formulation C at a strength of 2.5% CBD. The treatment scheme is summarized below.
Animals in each group received topical administration of either 2.5% o 5% CBD using a 1 ml syringe to draw up exactly 100 μl. Compound was applied in the shaved area only. Each group received a different formulation of the compound.
Sample Collection, Processing, and Shipment: Blood samples were collected at the in-life facility at the following time points: 0.25, 0.5, 1, 2, 4, and 8 hours post-dose from 72 mice in Groups 1 through 4 (18 from each treatment group). Target volume was less than or equal to 0.2 ml. The blood was collected via trunk puncture into tubes using K2 EDTA as an anticoagulant. The collected blood samples were kept on wet ice before being centrifuged. Blood samples were centrifuged as soon as possible after blood collection at approximately 10,000 rpm for about 10 minutes to separate the plasma. Approximately 0.2 mL of each plasma sample was transferred into labeled Eppendorf tubes. Each tube was stored in a freezer set to −20° C. or lower. No blood was collected from 12 (3 from each treatment group) of the 84 mice enrolled in the in-life study; thus, the total number of plasma samples that were transferred to the Alliance Pharma Bioanalytical department for bioanalysis was 72.
Assay Procedures: For analysis of CBD, a 25-μL aliquot of each study sample was mixed with 25 μL of acetonitrile/water (50:50, v/v). Samples were then extracted by protein precipitation using acetonitrile containing the internal standard, tolbutamide (25 ng/mL). A portion of the supernatant was diluted in deionized water and used for the analysis of CBD.
Data Acquisition and Processing: The LC-MS/MS data acquisition was performed on a Shimadzu Nexera X2 LC system coupled with an AB SCIEX Triple Quad 5500 mass spectrometer. Chromatograms were integrated using Analyst 1.6.2 software. A weighted (1/x^2, x=concentration) linear regression was used to generate the calibration curve for CBD. The concentration of CBD was calculated using the peak area ratio of analyte to internal standard based on the standard curve. Mean, standard deviation, precision, accuracy, and assay variability were calculated using Microsoft Excel software.
Pharmacokinetic Analysis: Software—The PK parameters were determined using a non-compartmental analysis tool, namely, Phoenix WnNonlin 6.3 software (Pharsight Corporation, St. Louis, Mo.). […]

[1] = Group 1, AEM.CBD.006 Formulation A 2.5% CBD, mean dose 78.69 mg/kg
[2] = Group 2, AEM.CBD.007 Formulation B 2.5% CBD, mean dose 76.61 mg/kg
[3] = Group 3, KBM.CBD.010 Formulation C 5% CBD, mean dose 155.24 mg/kg
[4] = Group 4, KBM.CBD.011 Formulation C 2.5% CBD, mean dose 75.76 mg/kg

C=C(C)[C@@H]1CCC(C)=C[C@H]1c1c(O)cc(CCCCC)cc1O [Cannabidiol]
AUCinf [1]: 1865 ng·h/mL
AUClast [1]: 1758 ng·h/mL
Cmax [1]: 427.149 ng/mL
t1/2 [1]: 1.78 h
tmax [1]: 2.00 h
AUCinf [2]: 1647 ng·h/mL
AUClast [2]: 1563 ng·h/mL
Cmax [2]: 360.351 ng/mL
t1/2 [2]: 1.70 h
tmax [2]: 2.00 h
AUCinf [3]: 3533 ng·h/mL
AUClast [3]: 3067 ng·h/mL
Cmax [3]: 602.168 ng/mL
tmax [3]: 4.00 h
AUCinf [4]: 1514 ng·h/mL
AUClast [4]: 1410 ng·h/mL
Cmax [4]: 331.560 ng/mL
t1/2 [4]: 1.92 h
tmax [4]: 1.00 h
